The values that follow come from patent publication US20260021051A1, “PHARMACEUTICAL FORMULATIONS” (VIVUS LLC, priority 2015, published 2026).

For data set [1] the following is noted: cited from earlier work.
The conditions of data set [2]: cited from earlier work. The source holds these as a separate data set.
Data set [3] in a line: Solubility of tacrolimus in vehicles (shaken, filtered, HPLC). It is filed as physicochemical. As to the method:
The solubility of tacrolimus was obtained in Maisine® 35-1, sesame oil, Miglyol® 812, Caspmul MCM EP, Labrafil M 2125 CS, peceol, Capryol 90, Lauroglycol FCC, Span 80, caprylic acid, Transcutol HP, Tween 80 (polysorbate 80), Kolliphor EL (Cremophor EL), labrasol, Vitamin E TPGS, PEG 400, propylene glycol, ethanol, Phosal 50 PG, triethylcitrate, and PEG 3350. In general, tacrolimus (˜15 mg) was added to approximately 250 mg of the vehicles. After the first addition of the API, the mixtures were shaken in a temperature-controlled vortex mixer for 24 hours at 25° C. (50° C. for Vitamin E TPGS and 60° C. for PEG 3350) then examined for solid residues. If no residue was observed, further addition of API was performed until the total API added was ˜55 mg. After the final addition, samples were further shaken at temperature for at least 24 h. After the incubation, each sample was examined visually for solid residues. Suspensions were filtered using a centrifuge tube with 0.45 μm PVDF membrane filter (Millipore Durapore®). The thick filtrate was weighed in to a 5-mL volumetric flask and diluted to mark with the HPLC diluent. Biphasic mixtures were vialed, spun on a centrifuge, and the clear solution was separated from the oily phase. All samples were prepared protected from light.

The structures appear in SMILES notation. Like-named read-outs stand apart in the source and are kept apart here.

On to `C=CC[C@@H]1/C=C(\C)C[C@H](C)C[C@H](OC)[C@H]2O[C@@](O)(C(=O)C(=O)N3CCCC[C@H]3C(=O)O[C@H](/C(C)=C/[C@@H]3CC[C@@H](O)[C@H](OC)C3)[C@H](C)[C@@H](O)CC1=O)[C@H](C)C[C@@H]2OC` (relative stereo) [Tacrolimus, [3S-[3R*[E(1S*,3S*,4S*)], 4S*,5R*,8S*,9E,12R*,14R*,15S*,16R*,18S*, 19S*,26-aR*]]-5,6,8,11,12,13,14,15,16,17,18,19,24,25,26a-hexadecahydro-5,19-dihydroxy-3-[2-(4-hydroxy-3-methoxycyclohexyl)-1-methylethenyl]-14,16-dimethoxy-4,10,12,18-tetramethyl-8-(2-propenyl)-15,19-epoxy-3H-pyrido [2,1-c][1,4]oxazacyclotricosine-1,7,20,21 (4H,23H)-tetrone, monohydrate], for which, in data set [1] (after oral administration), the “time to peak concentration” value was 0.5 to 4 h. Moreover, in data set [1] (based on plasma), the “volume of distribution (VolD) based on plasma” value is reported as 5 to 65 L/kg of body weight. The half-life for distribution in data set [1] (in vivo) is 54 min. In addition, the protein binding in data set [1] (in vivo) is reported as 75 to 99%. The “whole blood concentrations relative to plasma concentrations” value in data set [1] (in vivo) is listed as 12 to 67 times. For the same molecule, in data set [1] (oral), the “bioavailability of the oral dosage form (range)” value was 5 to 65%. The “mean bioavailability of the oral dosage form” value in data set [1] (oral) is recorded as “about 27%”. In addition, the solubility entry is on record as “very soluble” in data set [2] (in chloroform); “freely soluble” in data set [2] (in ethanol); “very soluble” in data set [2] (in methanol); “practically insoluble” in data set [2] (in water); > 56 mg of API per gram of solvent in data set [3] (in Capryol 90, 25° C.); > 56 mg of API per gram of solvent in data set [3] (in Caspmul MCM EP, 25° C.). The solubility is on record as > 56 mg of API per gram of solvent in data set [3] (in PEG 400, 25° C.); > 56 mg of API per gram of solvent in data set [3] (in PEG 3350, 60° C.); > 56 mg of API per gram of solvent in data set [3] (in Phosal 50 PG, 25° C.); > 56 mg of API per gram of solvent in data set [3] (in Vitamin E TPGS, 50° C.); > 56 mg of API per gram of solvent in data set [3] (in caprylic acid, 25° C.); > 56 mg of API per gram of solvent in data set [3] (in ethanol, 25° C.). Moreover, the solubility in data set [3] (in labrasol, 25° C.) is reported as > 56 mg of API per gram of solvent; in data set [3] (in propylene glycol, 25° C.) it was > 56 mg of API per gram of solvent; in data set [3] (in triethylcitrate, 25° C.) it was > 56 mg of API per gram of solvent.
